Assays:
[1] = target: Neuronal acetylcholine receptor subunit alpha-7 (Rattus norvegicus, UniProt Q05941); test: Binding affinity towards Nicotinic acetylcholine receptor alpha-7 using [3H]-MLA as radioligand
[2] = target: Neuronal acetylcholine receptor; alpha4/beta2 (Rattus norvegicus, UniProt P09483+P12390); test: Binding affinity towards Nicotinic acetylcholine receptor alpha4-beta2 using [3H]nicotine as radioligand; type: protein-complex assay
[3] = target: Neuronal acetylcholine receptor alpha3/beta4 (Homo sapiens); test: Binding affinity towards alpha3-beta4 subtype of neuronal nicotinic acetylcholine receptor (nAChR) using [3H]epibatidine as radioligand

Sequence of Neuronal acetylcholine receptor; alpha4/beta2 (P09483 whole entry): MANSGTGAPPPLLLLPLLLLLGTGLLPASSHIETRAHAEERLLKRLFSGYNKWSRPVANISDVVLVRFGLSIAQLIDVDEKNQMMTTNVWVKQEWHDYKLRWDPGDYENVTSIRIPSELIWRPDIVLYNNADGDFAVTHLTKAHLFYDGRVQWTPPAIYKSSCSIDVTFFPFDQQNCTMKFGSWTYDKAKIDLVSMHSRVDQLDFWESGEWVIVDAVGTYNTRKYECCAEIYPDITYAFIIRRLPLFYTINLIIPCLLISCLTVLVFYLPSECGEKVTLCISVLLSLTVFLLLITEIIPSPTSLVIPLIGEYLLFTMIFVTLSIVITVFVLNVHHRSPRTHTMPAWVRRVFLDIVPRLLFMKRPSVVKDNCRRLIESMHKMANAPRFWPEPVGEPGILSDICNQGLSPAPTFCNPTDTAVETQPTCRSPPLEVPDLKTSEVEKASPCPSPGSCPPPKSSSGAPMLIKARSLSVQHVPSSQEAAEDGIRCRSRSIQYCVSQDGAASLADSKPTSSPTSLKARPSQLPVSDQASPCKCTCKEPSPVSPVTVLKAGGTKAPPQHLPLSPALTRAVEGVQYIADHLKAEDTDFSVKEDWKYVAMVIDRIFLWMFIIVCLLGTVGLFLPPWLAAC
Sequence of Neuronal acetylcholine receptor; alpha4/beta2 (P12390 whole entry): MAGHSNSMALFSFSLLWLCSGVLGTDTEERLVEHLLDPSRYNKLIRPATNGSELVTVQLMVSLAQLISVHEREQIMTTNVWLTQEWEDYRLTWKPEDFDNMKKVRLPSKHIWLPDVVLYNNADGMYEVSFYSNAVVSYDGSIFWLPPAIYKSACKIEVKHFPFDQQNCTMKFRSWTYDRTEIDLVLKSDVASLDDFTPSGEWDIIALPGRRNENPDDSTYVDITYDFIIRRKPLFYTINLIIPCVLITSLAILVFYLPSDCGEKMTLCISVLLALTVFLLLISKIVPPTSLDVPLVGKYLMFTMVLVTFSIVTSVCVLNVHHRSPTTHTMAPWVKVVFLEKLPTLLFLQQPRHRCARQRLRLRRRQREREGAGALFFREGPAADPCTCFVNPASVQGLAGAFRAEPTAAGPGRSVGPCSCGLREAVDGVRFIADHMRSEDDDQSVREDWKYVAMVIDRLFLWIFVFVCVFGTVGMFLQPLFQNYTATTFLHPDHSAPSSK
Sequence of Neuronal acetylcholine receptor subunit alpha-7 (Q05941 whole entry): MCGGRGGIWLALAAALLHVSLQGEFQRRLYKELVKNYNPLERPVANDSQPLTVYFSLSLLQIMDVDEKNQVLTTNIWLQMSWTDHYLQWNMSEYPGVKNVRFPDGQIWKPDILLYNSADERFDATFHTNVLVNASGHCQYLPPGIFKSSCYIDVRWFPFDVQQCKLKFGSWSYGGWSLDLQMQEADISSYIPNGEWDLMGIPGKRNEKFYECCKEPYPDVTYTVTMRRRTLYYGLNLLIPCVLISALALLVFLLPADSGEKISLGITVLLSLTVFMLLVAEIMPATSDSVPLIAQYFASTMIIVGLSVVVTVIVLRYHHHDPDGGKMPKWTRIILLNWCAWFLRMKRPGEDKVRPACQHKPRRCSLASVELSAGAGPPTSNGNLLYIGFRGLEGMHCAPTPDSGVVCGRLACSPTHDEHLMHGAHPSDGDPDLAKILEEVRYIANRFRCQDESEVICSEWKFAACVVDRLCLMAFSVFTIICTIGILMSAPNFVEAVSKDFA

SMILES	Ki [1] [nM]	Ki [2] [nM]	Ki [3] [nM]
Clc1ccc(C2=CCC[C@@H]3CC[C@H]2N3)cn1	2760		
C1=C(c2ccc(-c3ccccc3)nc2)C2CCC(CC1)N2 (centres undefined)	1310	21.4	
C1=C(c2cccnc2-c2ccccc2)C2CCC(CC1)N2 (centres undefined)	> 50000	> 50000	> 50000
C1=C(c2cccnc2)C2CCC(CC1)N2 (centres undefined)	89	0.43	
C1=C(c2cnccc2-c2ccccc2)C2CCC(CC1)N2 (centres undefined)	927	234	1990
C1=C(c2cncc(-c3ccccc3)c2)C2CCC(CC1)N2 (centres undefined)	16000	4.8	468
